Experiments:
[1] = tested on: Human osteosarcoma cells (HOS) stably expressing GFP-LC3; experiment: High Content Screening Autophagy Assay (GFP-LC3 foci); format: cell-based; conditions: autophagy in HOS cells, activated with KU-0063794 500 nM plus Bafilomycin A1 5 nM, 6 hours, LC3-GFP foci area per cell, read-out: Median IC50 (nM) Cellular assay
Procedure: Human osteosarcoma cells (HOS) stably expressing a Green Fluorescent Protein (GFP) tagged LC3 (GFP-LC3) were used to determine the inhibitory effect on autophagy of proprietary compounds. For that purpose, autophagy was activated by using the mTOR inhibitor KU-0063794 at 500 nM in the presence of Bafilomycin A1 (Sigma-Aldrich) at 5 nM. Shortly, cells were plated overnight in clear bottom 96-well plates in DMEM—High Modified media (Hi-Clone Cat #SH30285.01). At the start of the experiment, the media was removed and replaced with fresh media containing the mTOR inhibitor, Bafilomycin A1 and the vehicle or a test compound as indicated. After 6 hours the media was removed, cells were washed twice with ice-cold phosphate buffered saline (PBS) and fixed with 4% paraformaldehyde for 20 minutes at room temperature. Then the cells were washed twice with ice-cold PBS before adding Hoechst 33342 at 1 μg/ml in PBS for nuclear staining. After incubation overnight at 4° C., cells were washed once with PBS to remove the excess of dye and 100 μl of PBS was added to each well. Images were acquired at 20× magnification, 6 images per well, using the ImageXpress automated microscope (Molecular Devices Inc.) and analyzed with MetaXpress software to identify LC3-GFP foci. Foci area per cell values were used to generate dose response curves and IC50 values were calculated using the non-linear fitting analysis in GraphPad Prism software. […] The results of the assay are shown in Table 2 (Median IC50 nM HOS-LC3).

Vps34 enzyme = Vps34 enzyme (Homo sapiens (Human), UniProt Q8NEB9); experiment: Vps34 Biochemical Assay (Adapta kinase assay, TR-FRET); conditions: 20 μM ATP and 200 μM PI:PS in substrate mix, 1 h at room temperature, read-out: Median IC50 nM Adapta
Procedure: Dilution series of compounds of the invention were prepared in DMSO at 100 times the final assay concentration (n1=n0/3 in 10 points). The compounds were further diluted to 4 times the assay concentration in assay buffer (Life technologies buffer Q, PV5125, diluted 5 times supplemented with 2 mM DTT and 2 mM MnCl2). 2.5 μl of the diluted compounds were added to a 384 well assay plate followed by 2.5 μl of 16.5 nM Vps34 enzyme (Life technologies, PV5126). Enzyme and compounds were pre-incubated at rt for 15 min. Then 5 μl of substrate mix containing 20 μM ATP (Life technologies, PV3227) and 200 μM PI:PS substrate (Life technologies, PV5122) in assay buffer was added to the wells containing compound and enzyme. Mixing was performed by pipetting several times. The reaction was incubated at room temperature for 1 h. Then 5 μl stop-detection mix, prepared as described in the Adapta kinase assay kit instructions (Life technologies, PV5099) containing Adapta Eu-anti-ADP antibody (2.3 nM), Alexa Fluor 647 ADP tracer (9 nM) and EDTA (30 mM) in TR-FRET buffer, was added to quench the reaction. Mixing was performed by pipetting several times. The assay plate was then incubated at room temperature for 30 min and read with Artemis micro plate reader. Percent inhibition of the compounds as compared to DMSO treated control samples was calculated. By the use of Dotmatics software compound concentration versus percent inhibition was fitted to generate IC50 values.

Chain of Vps34 enzyme (Q8NEB9 whole entry): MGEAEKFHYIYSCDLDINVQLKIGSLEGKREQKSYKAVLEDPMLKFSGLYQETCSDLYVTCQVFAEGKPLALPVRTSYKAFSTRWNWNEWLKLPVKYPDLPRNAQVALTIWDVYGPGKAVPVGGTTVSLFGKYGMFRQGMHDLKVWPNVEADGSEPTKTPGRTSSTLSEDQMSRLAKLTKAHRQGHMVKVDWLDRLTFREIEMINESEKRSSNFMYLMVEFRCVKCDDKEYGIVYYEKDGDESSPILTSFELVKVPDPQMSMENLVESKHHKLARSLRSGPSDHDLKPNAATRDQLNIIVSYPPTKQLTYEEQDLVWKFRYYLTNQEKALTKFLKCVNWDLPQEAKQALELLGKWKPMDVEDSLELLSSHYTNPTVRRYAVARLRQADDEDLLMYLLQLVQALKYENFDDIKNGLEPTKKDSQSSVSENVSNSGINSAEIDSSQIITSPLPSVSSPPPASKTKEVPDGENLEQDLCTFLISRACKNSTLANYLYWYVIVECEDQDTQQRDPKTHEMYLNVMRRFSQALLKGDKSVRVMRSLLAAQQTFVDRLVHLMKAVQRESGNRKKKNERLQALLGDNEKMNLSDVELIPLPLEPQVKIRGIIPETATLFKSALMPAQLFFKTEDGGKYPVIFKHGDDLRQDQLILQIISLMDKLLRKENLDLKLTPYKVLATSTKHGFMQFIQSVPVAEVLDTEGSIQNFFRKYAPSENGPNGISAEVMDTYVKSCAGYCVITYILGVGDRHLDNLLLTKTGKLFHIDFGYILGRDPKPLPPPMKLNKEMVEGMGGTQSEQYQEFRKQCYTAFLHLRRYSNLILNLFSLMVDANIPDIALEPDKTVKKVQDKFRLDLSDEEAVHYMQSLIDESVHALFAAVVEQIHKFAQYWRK

Structure (SMILES)	IC50 [1] [nM]	IC50 (Vps34 enzyme) [nM]
O=c1cc(-c2ccnc3[nH]ccc23)cc(-c2ccccc2C(F)(F)F)[nH]1 [Example 4, 4-(1H-pyrrolo[2,3-b]pyridin-4-yl)-6-[2-(trifluoromethyl)phenyl]-1H-pyridin-2-one]	665	< 5
Cc1cnccc1-c1cc(-c2ccnc3[nH]ccc23)cc(=O)[nH]1 [Example 6, 6-(3-Methyl-4-pyridyl)-4-(1H-pyrrolo[2,3-b]pyridin-4-yl)-1H-pyridin-2-one]	2570	20
O=c1cc(-c2ccnc3[nH]ccc23)cc(N2CCCC2c2ccccc2)[nH]1 (stereo not shown) [Example 8, 6-(2-phenylpyrrolidin-1-yl)-4-(1H-pyrrolo[2,3-b]pyridin-4-yl)-1H-pyridin-2-one]	366	10
Cc1cc2c(-c3cc(-c4cccnc4)[nH]c(=O)c3)ccnc2[nH]1 [Example 12, 4-(2-Methyl-1H-pyrrolo[2,3-b]pyridin-4-yl)-6-(3-pyridyl)-1H-pyridin-2-one]	554	24
Cc1cc2c(-c3cc(N4CCOCC4)[nH]c(=O)c3)ccnc2[nH]1 [Example 16, 4-(2-Methyl-1H-pyrrolo[2,3-b]pyridin-4-yl)-6-morpholino-1H-pyridin-2-one]		12
O=c1cc(-c2ccnc3[nH]c(-c4cnco4)cc23)cc(-c2ccccc2Cl)[nH]1 [Example 23, 6-(2-Chlorophenyl)-4-(2-oxazol-5-yl-1H-pyrrolo[2,3-b]pyridin-4-yl)-1H-pyridin-2-one]	44	8
O=c1cc(-c2ccnc3[nH]c(-c4cccnc4)cc23)cc(-c2ccccc2Cl)[nH]1 [Example 27, 6-(2-Chlorophenyl)-4-[2-(3-pyridyl)-1H-pyrrolo[2,3-b]pyridin-4-yl]-1H-pyridin-2-one]	16	< 5
Cc1cc2c(-c3cc(-c4ccccc4Cl)[nH]c(=O)c3)ccnc2[nH]1 [Example 29, 6-(2-Chlorophenyl)-4-(2-methyl-1H-pyrrolo[2,3-b]pyridin-4-yl)-1H-pyridin-2-one]	54	< 5
Cc1cc2c(-c3cc(N4CCCCC4C(F)(F)F)[nH]c(=O)c3)ccnc2[nH]1 (stereo not shown) [Example 36, 4-(2-Methyl-1H-pyrrolo[2,3-b]pyridin-4-yl)-6-[2-(trifluoromethyl)-1-piperidyl]-1H-pyridin-2-one]	62	< 5
O=c1cc(-c2ccnc3[nH]ccc23)cc(N2CCCCC2C(F)(F)F)[nH]1 (stereo not shown) [Example 37, 4-(1H-pyrrolo[2,3-b]pyridin-4-yl)-6-[2-(trifluoromethyl)-1-piperidyl]-1H-pyridin-2-one]	145	< 5
O=c1cc(-c2ccnc3[nH]ccc23)cc(N2CCOCC2C(F)(F)F)[nH]1 (stereo not shown) [Example 42, 4-(1H-pyrrolo[2,3-b]pyridin-4-yl)-6-[3-(trifluoromethyl)morpholin-4-yl]-1H-pyridin-2-one]	473	< 5
O=c1cc(-c2ccnc3[nH]c(-c4cccc(C(F)(F)F)c4)cc23)cc(N2CCOCC2C(F)(F)F)[nH]1 (stereo not shown) [Example 45, 6-[3-(Trifluoromethyl)morpholin-4-yl]-4-[2-[3-(trifluoromethyl)phenyl]-1H-pyrrolo[2,3-b]pyridin-4-yl]-1H-pyridin-2-one]		34
Cc1ccc(-c2cc3c(-c4cc(N5CCOCC5C(F)(F)F)[nH]c(=O)c4)ccnc3[nH]2)s1 (stereo not shown) [Example 48, 4-[2-(5-Methyl-2-thienyl)-1H-pyrrolo[2,3-b]pyridin-4-yl]-6-[3-(trifluoromethyl)morpholin-4-yl]-1H-pyridin-2-one]		< 5
O=c1cc(-c2ccnc3[nH]ncc23)cc(N2CCCCC2C(F)(F)F)[nH]1 (stereo not shown) [Example 49, 4-(1H-pyrazolo[3,4-b]pyridin-4-yl)-6-[2-(trifluoromethyl)-1-piperidyl]-1H-pyridin-2-one]	62	< 5
O=c1cc(-c2ccnc3[nH]c(-c4cnc(C(F)(F)F)nc4)cc23)cc(N2CCCCC2C(F)(F)F)[nH]1 (stereo not shown) [Example 52, 6-[2-(Trifluoromethyl)-1-piperidyl]-4-[2-[2-(trifluoromethyl)pyrimidin-5-yl]-1H-pyrrolo[2,3-b]pyridin-4-yl]-1H-pyridin-2-one]		< 5
O=c1cc(-c2ccnc3[nH]c(-c4ccc(C(F)(F)F)nc4)cc23)cc(N2CCCCC2C(F)(F)F)[nH]1 (stereo not shown) [Example 55, 6-[2-(Trifluoromethyl)-1-piperidyl]-4-[2-[6-(trifluoromethyl)-3-pyridyl]-1H-pyrrolo[2,3-b]pyridin-4-yl]-1H-pyridin-2-one]		< 5
O=c1cc(-c2ccnc3[nH]c(-c4cncc(C(F)(F)F)c4)cc23)cc(N2CCCCC2C(F)(F)F)[nH]1 (stereo not shown) [Example 58, 6-[2-(Trifluoromethyl)-1-piperidyl]-4-[2-[5-(trifluoromethyl)-3-pyridyl]-1H-pyrrolo[2,3-b]pyridin-4-yl]-1H-pyridin-2-one]		7

Further lines, results first:

IC50 [1] [nM]	IC50 (Vps34 enzyme) [nM]	Structure (SMILES)
176	< 5	O=c1cc(-c2ccnc3[nH]ccc23)cc(N2CCN(S(=O)(=O)Cc3ccc(F)cc3)CC2C(F)(F)F)[nH]1 (stereo not shown) [Example 65, 6-[4-[(4-fluorophenyl)methylsulfonyl]-2-(trifluoromethyl)piperazin-1-yl]-4-(1H-pyrrolo[2,3-b]pyridin-4-yl)-1H-pyridin-2-one]
308	< 5	CCS(=O)(=O)N1CCN(c2cc(-c3ccnc4[nH]ccc34)cc(=O)[nH]2)C(C(F)(F)F)C1 (stereo not shown) [Example 71, 6-[4-Ethylsulfonyl-2-(trifluoromethyl)piperazin-1-yl]-4-(1H-pyrrolo[2,3-b]pyridin-4-yl)-1H-pyridin-2-one]
19	< 5	CCS(=O)(=O)N1CCN(c2cc(-c3ccnc4[nH]c(C5CC5)cc34)cc(=O)[nH]2)C(C(F)(F)F)C1 (stereo not shown) [Example 72, 4-(2-Cyclopropyl-1H-pyrrolo[2,3-b]pyridin-4-yl)-6-[4-ethylsulfonyl-2-(trifluoromethyl)piperazin-1-yl]-1H-pyridin-2-one]
28	< 5	CCS(=O)(=O)N1CCN(c2cc(-c3ccnc4[nH]c(C)cc34)cc(=O)[nH]2)C(C(F)(F)F)C1 (stereo not shown) [Example 73, 6-[4-Ethylsulfonyl-2-(trifluoromethyl)piperazin-1-yl]-4-(2-methyl-1H-pyrrolo[2,3-b]pyridin-4-yl)-1H-pyridin-2-one]
89	< 5	CCS(=O)(=O)N1CCN(c2cc(-c3ccnc4[nH]c(C#N)cc34)cc(=O)[nH]2)C(C(F)(F)F)C1 (stereo not shown) [Example 74, 4-[2-[4-Ethylsulfonyl-2-(trifluoromethyl)piperazin-1-yl]-6-oxo-1H-pyridin-4-yl]-1H-pyrrolo[2,3-b]pyridine-2-carbonitrile]
	< 5	O=c1cc(-c2ccnc3[nH]c(C4CC4)cc23)cc(-c2ccccc2C(F)(F)F)[nH]1 [Example 79, 4-(2-cyclopropyl-1H-pyrrolo[2,3-b]pyridin-4-yl)-6-[2-(trifluoromethyl)phenyl]-1H-pyridin-2-one]
	< 5	N#Cc1cc2c(-c3cc(-c4ccccc4C(F)(F)F)[nH]c(=O)c3)ccnc2[nH]1 [Example 80, 4-[2-Oxo-6-[2-(trifluoromethyl)phenyl]-1H-pyridin-4-yl]-1H-pyrrolo[2,3-b]pyridine-2-carbonitrile]
485	< 5	O=c1cc(-c2ccnc3[nH]ncc23)cc(-c2ccccc2C(F)(F)F)[nH]1 [Example 82, 4-(1H-pyrazolo[3,4-b]pyridin-4-yl)-6-[2-(trifluoromethyl)phenyl]-1H-pyridin-2-one]
	< 5	CS(=O)(=O)N1CCN(c2cc(-c3ccnc4[nH]ncc34)cc(=O)[nH]2)C(C(F)(F)F)C1 (stereo not shown) [Example 88, 6-[4-Methylsulfonyl-2-(trifluoromethyl)piperazin-1-yl]-4-(1H-pyrazolo[3,4-b]pyridin-4-yl)-1H-pyridin-2-one]

From patent publication US11498919B2, “Azaindolylpyridone and diazaindolylpyridone compounds” (Sprint Bioscience AB, priority 2017, dated 2022)
